Measurements as given in patent US12673956B2, “Oxadiazolyl dihydropyrano[2,3-b]pyridine inhibitors of HIPK2 for treating kidney fibrosis” (ICAHN SCHOOL OF MEDICINE AT MOUNT SINAI, priority 2021, dated 2026).

Test system: TGF/SMAD Signaling Pathway SBE Reporter—HEK293 Cell Line
Test: Luciferase screen, TGF/SMAD SBE reporter HEK293 cells stimulated with TGFβ
Format: cell-based
Details: Homo sapiens, HEK293, 18 h, read-out: Luciferase IC50 nM
Experimental: For the data in Table 1, the Bight-Glo™ Luciferase Assay System from Promega was used with TGF/SMAD Signaling Pathway SBE Reporter—HEK293 Cell Line from BPSbioscience. On day 1 SBE reporter-HEK293 cells were seeded at a density of 25,000 cells per well into a white clear-bottom 96-well microplate in 100 μl of growth medium without geneticin. The plate was incubated at 37° C. in a CO2 incubator for 24 hrs. The wells were renewed with 60 μL assay medium and treated with test compounds by adding 5 μL of compounds in medium. The concentration of test compound in medium is adjusted so that 5 μL will provide the desired molarity of the solution. For example, if the desired test concentration is 30 µM, then 5 μL of […] compound is added. After 4 hours, TGFβ was added to 10 ng/mL. The plate was incubated at 37° C. in a CO2 incubator overnight (18 hours). One hour prior to assay all medium was replaced. The luciferase assay was run using ONE-Step™ Luciferase Assay System by adding 100 al of ONE-Step™ Luciferase reagent per well, rocking at room temperature for ~15 to 30 minutes and measuring luminescence using a luminometer. The signals were normalized to percentage inhibition, with non-TGF treated cells as 100% inhibition, and the data were processed by Graphpad Prism.

SMILES	IC50 [nM]
CC1(C)Oc2ncc(-c3nc(-c4ccc(Cl)c(F)c4)no3)cc2CC1O (stereo in doubt) [Example 35, (S)-6-(3-(4-chloro-3-fluorophenyl)-1,2,4-oxadiazol-5-yl)-2,2-dimethyl-3,4-dihydro-2H-pyrano[2,3-b]pyridin-3-ol]	22
CC1(C)Oc2ncc(-c3nc(-c4ccc(Br)cc4)no3)cc2CC1O (stereo not shown) [Example 1, 6-(3-(4-bromophenyl)-1,2,4-oxadiazol-5-yl)-2,2-dimethyl-3,4-dihydro-2H-pyrano[2,3-b]pyridin-3-ol]	43
CC1(C)Oc2ncc(-c3nc(-c4ccc(Br)cc4)no3)cc2C(N)C1O (stereo not shown) [Example 2, 4-amino-6-(3-(4-bromophenyl)-1,2,4-oxadiazol-5-yl)-2,2-dimethyl-3,4-dihydro-2H-pyrano[2,3-b]pyridin-3-ol]	8150
CC1(C)Oc2ncc(-c3nc(-c4ccc(Br)cc4)no3)cc2C[C@H]1O [Example 6, (R)-6-(3-(4-bromophenyl)-1,2,4-oxadiazol-5-yl)-2,2-dimethyl-3,4-dihydro-2H-pyrano[2,3-b]pyridin-3-ol]	27
CC1(C)Oc2ncc(-c3nc(-c4ccc(Br)cc4)no3)cc2C[C@@H]1O [Example 7, (S)-6-(3-(4-bromophenyl)-1,2,4-oxadiazol-5-yl)-2,2-dimethyl-3,4-dihydro-2H-pyrano[2,3-b]pyridin-3-ol]	37
CC1(C)Oc2ncc(-c3nc(-c4ccc(Br)cc4)no3)cc2[C@H](O)[C@H]1O [Example 8, (3R,4S)-6-(3-(4-bromophenyl)-1,2,4-oxadiazol-5-yl)-2,2-dimethyl-3,4-dihydro-2H-pyrano[2,3-b]pyridine-3,4-diol]	11300
CC1(C)Oc2ncc(-c3nc(-c4ccc(Br)cc4)no3)cc2[C@@H](O)[C@@H]1O [Example 9, (3S,4R)-6-(3-(4-bromophenyl)-1,2,4-oxadiazol-5-yl)-2,2-dimethyl-3,4-dihydro-2H-pyrano[2,3-b]pyridine-3,4-diol]	2420
Cc1ccc(-c2noc(-c3cnc4c(c3)C[C@H](O)C(C)(C)O4)n2)cc1 [Example 21, (S)-2,2-dimethyl-6-(3-p-tolyl-1,2,4-oxadiazol-5-yl)-3,4-dihydro-2H-pyrano[2,3-b]pyridin-3-ol]	17
CC1(C)Oc2ncc(-c3nc(-c4ccc(Cl)c(Cl)c4)no3)cc2C[C@@H]1O [Example 22, (S)-6-(3-(3,4-dichlorophenyl)-1,2,4-oxadiazol-5-yl)-2,2-dimethyl-3,4-dihydro-2H-pyrano[2,3-b]pyridin-3-ol]	43
CC1(C)Oc2ncc(-c3nc(-c4nc(Cl)cs4)no3)cc2C[C@@H]1O [Example 28, (S)-6-(3-(4-chlorothiazol-2-yl)-1,2,4-oxadiazol-5-yl)-2,2-dimethyl-3,4-dihydro-2H-pyrano[2,3-b]pyridin-3-ol]	13
CCn1ccc(-c2noc(-c3cnc4c(c3)C[C@@H](O)C(C)(C)O4)n2)n1 [Example 29, (R)-6-(3-(1-ethyl-1H-pyrazol-3-yl)-1,2,4-oxadiazol-5-yl)-2,2-dimethyl-3,4-dihydro-2H-pyrano[2,3-b]pyridin-3-ol]	56
CC1(C)Oc2ncc(-c3nc(-c4ncco4)no3)cc2C[C@@H]1O [Example 32, (S)-2,2-dimethyl-6-(3-(oxazol-2-yl)-1,2,4-oxadiazol-5-yl)-3,4-dihydro-2H-pyrano[2,3-b]pyridin-3-ol]	65
CC1(C)Oc2ncc(-c3nc(-c4ncco4)no3)cc2C[C@H]1O [Example 33, (3R)-2,2-dimethyl-6-(3-oxazol-2-yl-1,2,4-oxadiazol-5-yl)-3,4-dihydropyrano[2,3-b]pyridin-3-ol]	76
CC1(C)Oc2ncc(-c3nc(-c4ccc(Cl)c(F)c4)no3)cc2C[C@@H]1O [Example 34, (S)-6-(3-(4-chloro-3-fluorophenyl)-1,2,4-oxadiazol-5-yl)-2,2-dimethyl-3,4-dihydro-2H-pyrano[2,3-b]pyridin-3-ol]	39
Cc1cc(-c2noc(-c3cnc4c(c3)C[C@H](O)C(C)(C)O4)n2)ccc1Cl [Example 36, (3S)-6-[3-(4-chloro-3-methyl-phenyl)-1,2,4-oxadiazol-5-yl]-2,2-dimethyl-3,4-dihydropyrano[2,3-b]pyridin-3-ol]	52

Same assay, conditions: Homo sapiens; SBE reporter-HEK293 cells, TGFβ 10 ng/mL, 18 hours; read-out: Luciferase IC50

SMILES	IC50 [nM]
CC1(C)C[C@@H](O)c2cc(-c3nc(-c4ccc(Br)cc4)no3)cnc2O1 (single isomer, unassigned) [Example 10]	233
CC1(C)C[C@H](O)c2cc(-c3nc(-c4ccc(Br)cc4)no3)cnc2O1 (single isomer, unassigned) [Example 11]	57
CC1(C)Oc2ncc(-c3nc(-c4ccc(Cl)cc4)no3)cc2CC1O (stereo in doubt) [Example 12, (R)-6-(3-(4-chlorophenyl)-1,2,4-oxadiazol-5-yl)-2,2-dimethyl-3,4-dihydro-2H-pyrano[2,3-b]pyridin-3-ol]	89
CC1(C)Oc2ncc(-c3nc(-c4nccs4)no3)cc2CC1O (stereo in doubt) [Example 14, (R)-2,2-dimethyl-6-(3-(thiazol-2-yl)-1,2,4-oxadiazol-5-yl)-3,4-dihydro-2H-pyrano[2,3-b]pyridin-3-ol]	1370
CC1(C)Oc2ncc(-c3nc(-c4nccs4)no3)cc2CC1O (stereo in doubt) [Example 16, (S)-2,2-dimethyl-6-(3-(thiazol-2-yl)-1,2,4-oxadiazol-5-yl)-3,4-dihydro-2H-pyrano[2,3-b]pyridin-3-ol]	1110
C[C@H]1CCc2cc(-c3nc(-c4ccc(Br)cc4)no3)cnc2O1 [Example 3]	234
C[C@@H]1CCc2cc(-c3nc(-c4ccc(Br)cc4)no3)cnc2O1 [Example 4, ethyl (R)-6-(3-(4-bromophenyl)-1,2,4-oxadiazol-5-yl)-2-methyl-3,4-dihydro-2H-pyrano[2,3-b]pyridine]	126
CC1(C)CC(O)c2cc(-c3nc(-c4ccc(Br)cc4)no3)cnc2O1 (stereo not shown) [Example 5, 6-(3-(4-bromophenyl)-1,2,4-oxadiazol-5-yl)-2,2-dimethyl-3,4-dihydro-2H-pyrano[2,3-b]pyridin-4-ol]	86
Cn1ccc(-c2noc(-c3cnc4c(c3)C[C@@H](O)C(C)(C)O4)n2)n1 [Example 17, (R)-2,2-dimethyl-6-(3-(1-methyl-1H-pyrazol-3-yl)-1,2,4-oxadiazol-5-yl)-3,4-dihydro-2H-pyrano[2,3-b]pyridin-3-ol]	18
Cn1ccc(-c2noc(-c3cnc4c(c3)C[C@H](O)C(C)(C)O4)n2)n1 [Example 18, (S)-2,2-dimethyl-6-(3-(1-methyl-1H-pyrazol-3-yl)-1,2,4-oxadiazol-5-yl)-3,4-dihydro-2H-pyrano[2,3-b]pyridin-3-ol]	28
CO[C@H]1Cc2cc(-c3nc(-c4ccc(Cl)cc4)no3)cnc2OC1(C)C [Example 19, (S)-6-(3-(4-chlorophenyl)-1,2,4-oxadiazol-5-yl)-3-methoxy-2,2-dimethyl-3,4-dihydro-2H-pyrano[2,3-b]pyridine]	340
CC1(C)Oc2ncc(-c3nc(-c4ccc(F)cc4)no3)cc2C[C@@H]1O [Example 20, (S)-6-(3-(4-fluorophenyl)-1,2,4-oxadiazol-5-yl)-2,2-dimethyl-3,4-dihydro-2H-pyrano[2,3-b]pyridin-3-ol]	223
CC1(C)Oc2ncc(-c3nc(-c4ncc(Cl)s4)no3)cc2C[C@@H]1O [Example 23, (S)-6-(3-(5-chlorothiazol-2-yl)-1,2,4-oxadiazol-5-yl)-2,2-dimethyl-3,4-dihydro-2H-pyrano[2,3-b]pyridin-3-ol]	242
Cc1cnc(-c2noc(-c3cnc4c(c3)C[C@H](O)C(C)(C)O4)n2)s1 [Example 24, (S)-2,2-dimethyl-6-(3-(5-methylthiazol-2-yl)-1,2,4-oxadiazol-5-yl)-3,4-dihydro-2H-pyrano[2,3-b]pyridin-3-ol]	822
CC1(C)Oc2ncc(-c3nc(-c4ncc(Cl)s4)no3)cc2C[C@H]1O [Example 25, (R)-6-(3-(5-chlorothiazol-2-yl)-1,2,4-oxadiazol-5-yl)-2,2-dimethyl-3,4-dihydro-2H-pyrano[2,3-b]pyridin-3-ol]	206
Cc1cnc(-c2noc(-c3cnc4c(c3)C[C@@H](O)C(C)(C)O4)n2)s1 [Example 26, (R)-2,2-dimethyl-6-(3-(5-methylthiazol-2-yl)-1,2,4-oxadiazol-5-yl)-3,4-dihydro-2H-pyrano[2,3-b]pyridin-3-ol]	708
CC1(C)Oc2ncc(-c3nc(-c4nc(Cl)cs4)no3)cc2C[C@H]1O [Example 27, (R)-6-(3-(4-chlorothiazol-2-yl)-1,2,4-oxadiazol-5-yl)-2,2-dimethyl-3,4-dihydro-2H-pyrano[2,3-b]pyridin-3-ol]	705
CC1(C)Oc2ncc(-c3nc(-c4cccc(Cl)c4)no3)cc2C[C@@H]1O [Example 30, (S)-6-(3-(3-chlorophenyl)-1,2,4-oxadiazol-5-yl)-2,2-dimethyl-3,4-dihydro-2H-pyrano[2,3-b]pyridin-3-ol]	136
CC1(C)Oc2ncc(-c3nc(-c4cccc(Cl)c4)no3)cc2C[C@H]1O [Example 31, (R)-6-(3-(3-chlorophenyl)-1,2,4-oxadiazol-5-yl)-2,2-dimethyl-3,4-dihydro-2H-pyrano[2,3-b]pyridin-3-ol]	152
